# Experimental data as given in article PMC5373622, “Screening for AMPA receptor auxiliary subunit specific modulators” (PLoS ONE, 2017).
# Assays:
# [1] = biological target: GluA2flip(R)-stargazin (A2R-stg TetON HEK293 cells) (Homo sapiens, UniProt P42262, Q607R); test: Voltage-sensitive dye (VSD) assay (primary screen, counter-screen, CRC) on A2R-stg cells; details: for concentration at which PAM/NAM activity is evident in raw VSD traces, A2R-stg: raw VSD data
# Experimental: Cell lines used in the VSD assays were TetON HEK293 cells. […] We used GluA2flip(R) TetON HEK cell clone #4 that doxycycline (DOX) dependently expresses GluA2flip(R) (A2R). The A2R cells were used as the base cell line to derive cell lines that co-express auxiliary subunits.
# (§3) Greiner 384-pp round-bottom plates containing glutamate for the second add were dispensed by hand using a multi-channel pipet at 5X final concentration. A2R-stg cells were plated in 384-well BD PureCoat amine-coated plates (Corning Life Sciences) at 16k cells/well in DMEM medium supplemented with 10% heat-inactivated FBS and 100U/mL PenStrep antibiotic. […] Cells were incubated overnight (O/N) and washed 4 times in HBSS containing 20 mM HEPES, pH 7.4, on an ELX405CW liquid aspirator and dispenser (BioTek). Buffer was left in the wells and an equal amount of 2X FLIPR dye solution was added and incubated on the cells at room temperature for 45 min. Fluorescence signal was collected at 1 Hz using Ex. 480±20 nm/Em. 540±40 nm on a Hamamatsu Functional Drug Screening System 6000 (FDSS). Baseline signal was collected for 10 seconds followed by addition of 10 μl of 5X compound for a final concentration of 10 μM.
# Hits were selected from this initial screen using 4 different criteria, which we termed CMPDslope, CMPDmaxmin, GLUslope, and GLUmaxmin. […] GLUslope is the fitted slope of the increase in fluorescence within 10 sec after adding glutamate. GLUmaxmin is the difference in the minimum and maximum value in fluorescence signal reached in the 100 sec window after adding glutamate. Compounds were classified as hits if they differed by 3 standard deviations of the mean for each criterion. Tier 1 hits were classified as those that hit in the GLUslope, GLUmaxmin, and CMPDmaxmin windows. Tier 2 hits were classified as compounds that hit in the GLUslope window and either the GLUmaxmin or CMPDmaxmin window. Tier 3 hits were classified as those that hit in only the GLUslope or the GLUmaxmin window. Tier 4 hits were classified as compounds that hit only in the CMPD window, CMPDslope or CMPDmaxmin. Hit selection was further narrowed using the criterion that their signal must return to near baseline values before entering the glutamate add window.
# VSD concentration response curves (CRCs): After the above counter-screens, compounds that remained positive were moved forward to collect complete CRCs for A2R-stg and A2R-C3 cell lines. This assay was carried out in the same way as the VSD screening assay except a 10-point concentration curve, from 40 μM to 10 nM, was plated in triplicate for each compound on a single 384-well plate. Data were summarized by plotting them as %max GLUslope against log [compound] that was fit to a four-parameter logistical model. %max GLUslope is defined as a normalized GLUslope expressed as a percentage of the mean maximum GLUslope, defined as 100, where background mean vehicle control (VHLslope) were subtracted from both values on a per plate basis. Thus, %max GLU slope = (GLUslope-mean VHLslope/mean maxGLUslope-mean VHLslope).
# [2] = biological target: T1, tethered GluA2flip(Q)-stargazin (A2Q-stg cells) (Rattus norvegicus, UniProt P19491); test: Calcium flux (Fluo-8) glutamate potency fold-shift assay on A2Q-stg cells; type: cell-based; details: 30 μM compound
# T1 sequence (P19491 22-883): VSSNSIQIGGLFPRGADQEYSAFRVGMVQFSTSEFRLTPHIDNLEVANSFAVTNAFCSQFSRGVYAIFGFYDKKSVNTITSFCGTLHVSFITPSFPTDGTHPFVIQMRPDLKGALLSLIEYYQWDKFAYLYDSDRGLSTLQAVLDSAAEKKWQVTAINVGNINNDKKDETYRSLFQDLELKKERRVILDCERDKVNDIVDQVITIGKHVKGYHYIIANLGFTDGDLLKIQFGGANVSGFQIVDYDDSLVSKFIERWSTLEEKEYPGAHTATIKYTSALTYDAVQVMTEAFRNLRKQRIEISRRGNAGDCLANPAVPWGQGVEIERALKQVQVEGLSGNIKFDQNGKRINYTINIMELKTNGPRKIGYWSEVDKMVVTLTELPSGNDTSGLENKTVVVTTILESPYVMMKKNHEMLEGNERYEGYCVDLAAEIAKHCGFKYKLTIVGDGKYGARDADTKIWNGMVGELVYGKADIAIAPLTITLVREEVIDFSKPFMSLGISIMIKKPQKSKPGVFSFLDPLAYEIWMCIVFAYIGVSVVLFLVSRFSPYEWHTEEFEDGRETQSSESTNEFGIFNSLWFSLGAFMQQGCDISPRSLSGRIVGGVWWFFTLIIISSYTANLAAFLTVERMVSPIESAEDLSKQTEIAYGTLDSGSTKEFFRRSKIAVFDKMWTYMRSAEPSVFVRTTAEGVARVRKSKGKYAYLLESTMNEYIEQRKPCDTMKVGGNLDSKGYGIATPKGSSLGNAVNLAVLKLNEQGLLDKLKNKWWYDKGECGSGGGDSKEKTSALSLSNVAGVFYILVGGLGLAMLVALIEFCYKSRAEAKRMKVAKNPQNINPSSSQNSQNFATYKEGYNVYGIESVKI
# T1 sequence (Q71RJ2 whole entry partner): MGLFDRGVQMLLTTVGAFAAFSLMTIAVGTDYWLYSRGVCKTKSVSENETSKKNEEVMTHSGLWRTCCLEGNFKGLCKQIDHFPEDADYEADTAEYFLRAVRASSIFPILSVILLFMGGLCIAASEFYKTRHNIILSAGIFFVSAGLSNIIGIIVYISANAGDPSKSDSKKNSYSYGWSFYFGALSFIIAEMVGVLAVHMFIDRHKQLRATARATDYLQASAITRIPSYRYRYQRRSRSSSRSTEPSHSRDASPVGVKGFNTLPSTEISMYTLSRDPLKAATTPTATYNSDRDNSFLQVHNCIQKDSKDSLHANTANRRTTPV
# Experimental: (§1) In this assay, a maximal dose (30 μM) of each compound (Fig 4Di) was incubated on cells for 120 secs and then a CRC for glutamate ranging from 4 mM to 10 pM was collected (Fig 4Dii). A rightward shift of the CRC for glutamate to a higher EC50 indicates NAM activity and a leftward shift to a lower EC50 indicates PAM activity (Fig 4E). […] These compounds, considered active, were then evaluated as a CRC of the compounds in the calcium flux assay.
# [3] = biological target: T1, tethered GluA2flip(Q)-stargazin (A2Q-stg cells); test: Calcium flux (Fluo-8) compound CRC assay on A2Q-stg cells
# Source text: (§4) Cell lines used in the calcium flux assay were GluA2flip(Q)-FLAG + GSG1L-1D4 pTREt-Va dual expression in TetON HEK cell clone #20 (A2Q-GSG), GluA2flip(Q)-FLAG + CNIH3-1D4 pTREt-Va dual expression in TetON HEK cell clone #8 (A2Q-C3), GluA2flip(Q)-FLAG pTREt-Va in TetON HEK cell clone #5 (A2Q), and tethered GluA2flip(Q)-FLAG-stargazin [28] in pTREt-Va dual expression in TetON HEK cell clone #13 (A2Q-stg) (Summarized in Table 1).
# (§5) Compounds that were selected as hits using the VSD assay were subsequently screened against the calcium permeable A2Q-stg and A2Q-C3 cell lines in a glutamate potency fold-shift assay using the calcium sensing dye Fluo-8 (AAT Bioquest cat #21080). This assay is used to measure how pretreatment with compounds shifts the EC50 of glutamate on A2Q-stg and A2Q-C3 cells. 30 μM of each compound was pre-incubated with the cells for 120 secs and then an 11-point glutamate CRC from 4 mM to 10 pM was applied to the cells for 180 sec. […] Greiner 384-pp round-bottom plates containing glutamate solutions were dispensed by hand using a multi-channel pipet at 5X final concentration. […] Sodium butyrate and DOX were added to the cells at 1 mM and 5 μg/mL, respectively, 24 hours before screening. A2Q-stg cells were induced with 10 μg/mL DOX. Cells were incubated O/N and washed 4 times in low calcium buffer on an ELX405CW liquid aspirator and dispenser (BioTek). Buffer was left in the wells and an equal amount of 4.6 μM (2X) Fluo-8 (AAT Bioquest cat #21080) solution with 2.5 mM probenecid was added and incubated on the cells at room temperature for 40 minutes. Probenecid was added to block dye efflux from the cells [29]. Dye was washed off with low calcium buffer using the ELX405CW (BioTek) and plates were immediately inserted into the FDSS (Hamamatsu). Fluorescence signal was collected at 1 Hz using Ex. 480±20 nm/Em. 540±40 nm. Baseline signal was collected for 10 seconds followed by addition of 20 μl of 2X compound for a final concentration of 30 μM. After 290 seconds, 10 μl of a 5X glutamate solution in high calcium buffer (10 mM HEPES, pH 7.4, 140 mM NaCl, 5 mM KCl, 1 mM MgCl2, 9 mM CaCl2, and 10 mM glucose) was added for 180 seconds.
# These compound CRCs were applied to the cells 2 minutes before a 1mM glutamate stimulation. […] Normalized FDSS traces were curve fit to CRCs using the initial GLUslope (GLUslope1) in a 3–6 sec window after glutamate application. […]
# Cells were loaded with Fluo-8 and excess dye was washed out. […] We measured GLUslope in three consecutive time windows, referred to as GLUslope1-3, because three phases were clearly detectable (Fig 4C). The final CRC curves were calculated from GLUslope1, obtained from the first 3–6 sec window.
# The final compound CRC curves were calculated from GLUslope1. […]
# [4] = biological target: T2, GluA2flip(Q)-CNIH3 (A2Q-C3 cells) (Homo sapiens, UniProt P42262); test: Calcium flux (Fluo-8) glutamate potency fold-shift assay on A2Q-C3 cells; type: cell-based; design: FLAG (C); expressed in transfected cells; details: 30 μM compound
# T2 sequence (P42262 25-883 isoform P42262-2 limits assumed): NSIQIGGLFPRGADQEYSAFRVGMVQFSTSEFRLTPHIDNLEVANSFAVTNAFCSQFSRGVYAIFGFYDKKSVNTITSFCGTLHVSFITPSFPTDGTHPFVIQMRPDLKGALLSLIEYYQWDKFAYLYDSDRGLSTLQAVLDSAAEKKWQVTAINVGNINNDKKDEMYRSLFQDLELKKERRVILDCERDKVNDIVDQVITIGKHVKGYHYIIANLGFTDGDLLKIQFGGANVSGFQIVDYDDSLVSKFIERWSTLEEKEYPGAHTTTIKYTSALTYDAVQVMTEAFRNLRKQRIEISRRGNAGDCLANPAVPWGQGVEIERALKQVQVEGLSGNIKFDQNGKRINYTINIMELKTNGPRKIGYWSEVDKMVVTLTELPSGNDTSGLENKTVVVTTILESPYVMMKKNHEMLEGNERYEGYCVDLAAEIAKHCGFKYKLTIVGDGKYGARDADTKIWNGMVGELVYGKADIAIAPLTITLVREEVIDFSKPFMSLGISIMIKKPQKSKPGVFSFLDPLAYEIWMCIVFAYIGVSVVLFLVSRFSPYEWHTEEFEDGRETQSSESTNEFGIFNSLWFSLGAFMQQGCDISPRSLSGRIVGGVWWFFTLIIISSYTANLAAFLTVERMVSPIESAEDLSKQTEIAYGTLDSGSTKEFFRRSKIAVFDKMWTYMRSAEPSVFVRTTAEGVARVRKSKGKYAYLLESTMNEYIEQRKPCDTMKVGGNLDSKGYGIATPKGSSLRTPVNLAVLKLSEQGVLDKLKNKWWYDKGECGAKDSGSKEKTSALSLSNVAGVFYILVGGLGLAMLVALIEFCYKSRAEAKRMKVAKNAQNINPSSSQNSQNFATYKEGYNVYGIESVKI
# T2 sequence (Q8TBE1 whole entry partner): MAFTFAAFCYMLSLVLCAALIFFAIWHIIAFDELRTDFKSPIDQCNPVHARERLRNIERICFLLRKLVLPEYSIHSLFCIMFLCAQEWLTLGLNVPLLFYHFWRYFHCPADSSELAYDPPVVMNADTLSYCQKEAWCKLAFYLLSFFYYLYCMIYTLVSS
# Experimental: as §1
# [5] = biological target: GluA2flip(R)-CNIH3 (A2R-C3 TetON HEK293 cells) (Homo sapiens, UniProt P42262, Q607R); test: VSD assay (counter-screen, CRC) on A2R-C3 cells; details: for concentration at which PAM/NAM activity is evident in raw VSD traces, A2R-C3: raw VSD data
# GluA2flip(R)-CNIH3 (A2R-C3 TetON HEK293 cells), sequence (P42262 25-883 isoform P42262-2 Q607R limits assumed): as the sequence (P42262 25-883 isoform P42262-2 limits assumed) above, with Q583R counted along it
# GluA2flip(R)-CNIH3 (A2R-C3 TetON HEK293 cells), sequence (Q8TBE1 whole entry partner): as the sequence (Q8TBE1 whole entry partner) above
# Source text: Cell lines used in the VSD assays were TetON HEK293 cells. This was the parental cell line for all stable cell lines created. We used GluA2flip(R) TetON HEK cell clone #4 that doxycycline (DOX) dependently expresses GluA2flip(R) (A2R). The A2R cells were used as the base cell line to derive cell lines that co-express auxiliary subunits.
# as §3
# This assay was carried out in the same way as the VSD screening assay except a 10-point concentration curve, from 40 μM to 10 nM, was plated in triplicate for each compound on a single 384-well plate. Data were summarized by plotting them as %max GLUslope against log [compound] that was fit to a four-parameter logistical model. %max GLUslope is defined as a normalized GLUslope expressed as a percentage of the mean maximum GLUslope, defined as 100, where background mean vehicle control (VHLslope) were subtracted from both values on a per plate basis. Thus, %max GLU slope = (GLUslope-mean VHLslope/mean maxGLUslope-mean VHLslope).
# GluA2flip(Q) (A2Q cells) = biological target: T3, GluA2flip(Q) (A2Q cells) (Homo sapiens, UniProt P42262); test: Calcium flux (Fluo-8) compound CRC assay on A2Q cells; type: cell-based
# T3 construct: FLAG (C); expressed in transfected cells
# T3 sequence (P42262 25-883 isoform P42262-2 limits assumed): as the sequence (P42262 25-883 isoform P42262-2 limits assumed) above
# [6] = biological target: GluA2flip(Q)-GSG1L (A2Q-GSG cells) (Homo sapiens, UniProt P42262); test: Calcium flux (Fluo-8) compound CRC assay on A2Q-GSG cells
# GluA2flip(Q)-GSG1L (A2Q-GSG cells), sequence (P42262 25-883 isoform P42262-2 limits assumed): as above
# GluA2flip(Q)-GSG1L (A2Q-GSG cells), sequence (Q6UXU4 whole entry partner): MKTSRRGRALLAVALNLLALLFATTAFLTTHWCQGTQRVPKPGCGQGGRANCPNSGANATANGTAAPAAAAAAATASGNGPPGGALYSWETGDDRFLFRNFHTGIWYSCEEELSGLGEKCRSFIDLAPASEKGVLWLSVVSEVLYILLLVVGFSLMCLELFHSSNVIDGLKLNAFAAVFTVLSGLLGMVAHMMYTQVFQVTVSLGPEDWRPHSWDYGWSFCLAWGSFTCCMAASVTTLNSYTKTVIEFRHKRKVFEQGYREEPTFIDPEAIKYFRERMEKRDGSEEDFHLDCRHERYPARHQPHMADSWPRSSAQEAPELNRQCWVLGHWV
# Source text: as §4, §5
# (§6) These compound CRCs were applied to the cells 2 minutes before a 1mM glutamate stimulation. […] Normalized FDSS traces were curve fit to CRCs using the initial GLUslope (GLUslope1) in a 3–6 sec window after glutamate application. CRCs were also plotted for the traces’ area under the curve (AUC) in the GLUmaxmin window. […] Compounds were plotted as %max GLUslope against log [compound] and fit to a four-parameter logistical model as in the VSD.
# (§7) Cells were loaded with Fluo-8 and excess dye was washed out. After 120 secs of pre-incubation with compound at concentrations ranging from 30 μM to 30 nM (Fig 4Bi), 1 mM glutamate was added (Fig 4Bii). In the calcium assay, 250 μM was used as the maxGLU dose because the GLUslope1 values decreased at higher concentrations of glutamate, making it the dose with the maximal GLUslope1 response. […] We measured GLUslope in three consecutive time windows, referred to as GLUslope1-3, because three phases were clearly detectable (Fig 4C). The final CRC curves were calculated from GLUslope1, obtained from the first 3–6 sec window.
# (§8) The final compound CRC curves were calculated from GLUslope1. […] The AUC measures the accumulation of calcium instead of gating and sometimes produced a CRC fit when GLUslope1 could not derive an EC50 value.
# [7] = biological target: T2, GluA2flip(Q)-CNIH3 (A2Q-C3 cells); test: Calcium flux (Fluo-8) compound CRC assay on A2Q-C3 cells
# Source text: as §4, §5, §6, §7, §8
# GluA2flip(R) (A2R cells) = biological target: T4, GluA2flip(R) (A2R cells) (Homo sapiens, UniProt P42262, Q607R); test: Whole-cell electrophysiology with fast ligand application, A2R cells; type: cell-based; details: 40 μM compound
# T4 construct: expressed in transfected cells
# T4 sequence (P42262 25-883 isoform P42262-2 Q607R limits assumed): as the sequence (P42262 25-883 isoform P42262-2 limits assumed) above, with Q583R counted along it
# Experimental: (§2) A2R-stg cells were plated on HNO3 washed coverslips coated with 1:20000 poly-d-lysine (incubated for 20 min, washed with PBS 2x and media 1x) for 2 hours. They were induced with 5 μg/mL DOX for 24 hours before recording. A2R cells were plated on 1:60000 poly-d-lysine for 2 hours and induced with 7.5 μg/mL DOX for 30 hours before recording. The cells were lifted from the coverslip after whole cell configuration was achieved and brought in front of the theta tubing. […] Recording was done using a single channel of a Multiclamp700B Amplifier (Axon Instruments) operated by pClamp10 software. Signals were digitized using Digidata1440A (Axon Instruments) at a sampling rate of 50 kHz and low pass filtered at 2kHz. Borosilicate glass capillaries (O.D. 1.5 mm, I.D. 0.86 mm, Sutter) were pulled to manufacture electrodes with pipette resistances of 3.5–5 MΩ.
# Standard solution without ligand was the external solution. The ligand solution contained 1mM glutamate in external solution, supplemented with 2mM glucose and 3mM NaCl to facilitate visualizing the interface of the two solutions and recording liquid junction potential after breaking the patch. The 10–90% rise time of liquid junction potential was around 300μsec. VU0627849 was dissolved in external solution containing 1 mM glutamate to a final concentration of 40 μM. […]
# [8] = biological target: T5, GluA2flip(R) (A2R TetON HEK293 cells) (Homo sapiens, UniProt P42262, Q607R); test: VSD counter-screen on A2R cells; type: cell-based; details: 10 μM compound
# T5 construct: expressed in transfected cells
# T5 sequence (P42262 25-883 isoform P42262-2 Q607R limits assumed): as the sequence (P42262 25-883 isoform P42262-2 limits assumed) above, with Q583R counted along it
# [9] = biological target: T6, GluA2flip(R)-stargazin (A2R-stg cells) (Homo sapiens, UniProt P42262, Q607R); test: Whole-cell electrophysiology with fast ligand application, A2R-stg cells; type: cell-based; details: 40 μM compound
# T6 construct: expressed in transfected cells
# T6 sequence (P42262 25-883 isoform P42262-2 Q607R limits assumed): as the sequence (P42262 25-883 isoform P42262-2 limits assumed) above, with Q583R counted along it
# T6 sequence (Q9Y698 whole entry partner): as the sequence (Q71RJ2 whole entry partner) above, with V257I, D306E, S307N, A313S counted along it
# Experimental: as §2
# Standard solution without ligand was the external solution. The ligand solution contained 1mM glutamate in external solution, supplemented with 2mM glucose and 3mM NaCl to facilitate visualizing the interface of the two solutions and recording liquid junction potential after breaking the patch. The 10–90% rise time of liquid junction potential was around 300μsec. VU0627849 was dissolved in external solution containing 1 mM glutamate to a final concentration of 40 μM. Tips of the tubing for each solution were positioned immediately before the opening of one compartment of the theta tubing. Drug-containing and drug-free glutamate solutions were switched using a manual valve located between the solution reservoir and theta glass tube. Solution speed was adjusted by the height of the reservoir using gravity.
# We have conducted a preliminary electrophysiological investigation of the compound VU0627849. Using a fast ligand application system, A2R and A2R-stg cells were stimulated with 1mM glutamate using a 100 ms pulse followed by a 50 ms interval and a second 20 ms pulse to evaluate recovery from desensitization (Fig 10A and 10B red traces). […] These effects are drug specific because wash out of VU0627849 restored the original current (Fig 10B, black trace). We also see a small effect on A2R cells that was not seen in the VSD assay (Fig 10A blue trace). VU0627849 acted as a PAM on A2R-stg cells, corroborating our HTS data from the VSD assay.
# GluA2flip(R)-stargazin (A2R-stg TetON HEK293 cells), sequence (P42262 25-883 isoform P42262-2 Q607R limits assumed): as the sequence (P42262 25-883 isoform P42262-2 limits assumed) above, with Q583R counted along it
# GluA2flip(R)-stargazin (A2R-stg TetON HEK293 cells), sequence (Q9Y698 whole entry partner): as the sequence (Q71RJ2 whole entry partner) above, with V257I, D306E, S307N, A313S counted along it
EC50 [1] [µM],"PAM/NAM activity in VSD assay, A2R-stg [1]","PAM/NAM categorisation in glutamate potency fold-shift assay, A2Q-stg [2]","PAM/NAM activity in calcium flux CRC assay, A2Q-stg [3]","PAM/NAM categorisation in glutamate potency fold-shift assay, A2Q-C3 [4]",IC50 [5] [µM],"PAM/NAM activity in VSD assay, A2R-C3 [5]","PAM/NAM activity in calcium flux CRC assay, A2Q (GluA2flip(Q) (A2Q cells))","PAM/NAM activity in calcium flux CRC assay, A2Q-GSG [6]","PAM/NAM activity in calcium flux CRC assay, A2Q-C3 [7]","concentration at which PAM/NAM activity is evident in raw VSD traces, A2R-stg [1]","concentration at which PAM/NAM activity is evident in raw VSD traces, A2R-C3 [5]",Structure (SMILES),further results
4.2,PAM,NAM,Slight NAM activity,NAM,3.2,NAM,Slight NAM activity,PAM,slight decrease in signal,–,–,COc1ccccc1CC(=O)NC1(c2nc(-c3ccsc3)no2)CCCCC1 [VU0539491],–
–,NAM,right-shifts,negative trend,right-shifts,0.87,NAM,–,–,–,submicromolar,higher than 1 μM,CCCc1c(C(=O)NC2CCCCC2)nnn1-c1ccccc1 [VU0612951],"IC50 [1]: 1.5 µM; decrease in %max GLUslope across the CRC, A2R-stg ([1]; VSD CRC 40 μM to 10 nM): ~ 40%; decrease in %max GLUslope across the CRC, A2R-C3 ([5]; VSD CRC 40 μM to 10 nM): ~ 40%"
0.86,PAM,–,PAM,–,–,PAM,PAM,PAM,PAM,≥ 2.5 µM,≥ 2.5 µM,O=C(Cc1cc(-c2ccc3c(c2)OCCO3)on1)NCc1ccccc1 [VU0627849],"effect on A2R cells in electrophysiology (GluA2flip(R) (A2R cells)): small effect; increase in response of A2Q-stg cells ([3]; 7.5 and 30 μM compound): ~ 300 arbitrary fluorescence units (AFU); EC50 [5]: 0.85 µM; EC50 (GluA2flip(Q) (A2Q cells); CRC from GLUslope1, 1 mM glutamate, PAM, read-out: EC50 Ca2+ Sensing, A2Q): 14.1 µM; positive change in %max GLUslope, A2Q (GluA2flip(Q) (A2Q cells); across calcium flux CRC): > 80%; Activity on A2R cells in counter-screens [8]: did not show any activity; EC50 [6]: 24.9 µM; positive change in %max GLUslope, A2Q-GSG ([6]; across calcium flux CRC): > 80%; PAM/NAM activity in electrophysiology, A2R-stg [9]: PAM; change in peak amplitude ([9]; 1 mM glutamate 100 ms pulse, preliminary): no change; amplitude in the second pulse of glutamate ([9]; second 20 ms pulse after 50 ms interval, preliminary): increased amplitude; resensitization ([9]; within 10 ms following initial activation and desensitization, preliminary): delayed increase in resensitization; EC50 [7]: 3.1 µM; positive change in %max GLUslope, A2Q-C3 ([7]; across calcium flux CRC): > 80%"
